Data as given in ChEMBL document CHEMBL1155324, “Synthesis and evaluation of a series of 2,4-diaminopyridine derivatives as potential positron emission tomography tracers for neuropeptide Y Y1 receptors” (Bioorg Med Chem Lett, 2009).
pIC50: −log10 of the molar value.

Tests used:
[1] = Octanol-water distribution coefficient log Dat pH 7.4 by water-plug aspiration/injection method combined with HPLC-mass spectrometry
[2] = biological target: T1, Neuropeptide Y receptor type 1 (Homo sapiens, UniProt P25929); assay: Displacement of [125I]-PYY from human NPYY1 receptor overexpressed in CHO cell membrane after 120 mins by scintillation counting; assay type: cell membranes
T1 sequence (P25929 whole entry): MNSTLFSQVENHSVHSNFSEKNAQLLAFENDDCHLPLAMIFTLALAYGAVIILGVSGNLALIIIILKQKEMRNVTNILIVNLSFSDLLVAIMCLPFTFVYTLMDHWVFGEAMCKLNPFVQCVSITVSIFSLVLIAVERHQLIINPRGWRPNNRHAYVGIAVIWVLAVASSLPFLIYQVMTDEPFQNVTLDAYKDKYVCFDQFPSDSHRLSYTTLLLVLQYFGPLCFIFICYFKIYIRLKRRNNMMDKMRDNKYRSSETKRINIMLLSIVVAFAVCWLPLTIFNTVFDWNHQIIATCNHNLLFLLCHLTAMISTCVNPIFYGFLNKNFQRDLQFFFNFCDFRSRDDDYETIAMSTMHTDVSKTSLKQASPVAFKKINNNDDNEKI

[3] = biological target: Neuropeptide Y receptor type 4 (Homo sapiens, UniProt P50391); assay: Displacement of [125I]-PYY from human NPYY4 receptor
Neuropeptide Y receptor type 4, sequence (P50391 whole entry): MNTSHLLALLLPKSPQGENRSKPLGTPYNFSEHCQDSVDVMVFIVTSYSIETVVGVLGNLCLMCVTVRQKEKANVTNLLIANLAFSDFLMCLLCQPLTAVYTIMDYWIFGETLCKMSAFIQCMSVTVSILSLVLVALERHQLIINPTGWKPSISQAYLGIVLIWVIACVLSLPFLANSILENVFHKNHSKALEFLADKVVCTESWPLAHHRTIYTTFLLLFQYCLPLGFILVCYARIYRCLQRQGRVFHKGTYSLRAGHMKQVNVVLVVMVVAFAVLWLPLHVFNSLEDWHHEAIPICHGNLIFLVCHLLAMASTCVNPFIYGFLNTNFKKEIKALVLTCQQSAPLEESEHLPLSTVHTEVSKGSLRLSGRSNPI

[4] = biological target: T2, Neuropeptide Y receptor type 5 (Homo sapiens, UniProt Q15761); assay: Displacement of [125I]-PYY from human NPYY5 receptor
T2 sequence (Q15761 whole entry): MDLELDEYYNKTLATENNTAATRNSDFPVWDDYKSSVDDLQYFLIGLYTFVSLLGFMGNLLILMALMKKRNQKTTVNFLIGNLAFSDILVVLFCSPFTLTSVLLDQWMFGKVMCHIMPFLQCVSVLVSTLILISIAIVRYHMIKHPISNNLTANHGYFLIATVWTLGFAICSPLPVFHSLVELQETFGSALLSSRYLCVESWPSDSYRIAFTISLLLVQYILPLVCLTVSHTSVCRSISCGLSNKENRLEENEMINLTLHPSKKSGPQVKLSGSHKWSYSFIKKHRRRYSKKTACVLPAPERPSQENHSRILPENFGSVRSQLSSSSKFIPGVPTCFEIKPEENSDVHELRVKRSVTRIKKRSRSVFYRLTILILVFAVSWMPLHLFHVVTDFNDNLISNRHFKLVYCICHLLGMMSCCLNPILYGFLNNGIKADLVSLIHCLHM

[5] = biological target: T3, Neuropeptide Y receptor type 2 (Homo sapiens, UniProt P49146); assay: Displacement of [125I]-PYY from human NPYY2 receptor
T3 sequence (P49146 whole entry): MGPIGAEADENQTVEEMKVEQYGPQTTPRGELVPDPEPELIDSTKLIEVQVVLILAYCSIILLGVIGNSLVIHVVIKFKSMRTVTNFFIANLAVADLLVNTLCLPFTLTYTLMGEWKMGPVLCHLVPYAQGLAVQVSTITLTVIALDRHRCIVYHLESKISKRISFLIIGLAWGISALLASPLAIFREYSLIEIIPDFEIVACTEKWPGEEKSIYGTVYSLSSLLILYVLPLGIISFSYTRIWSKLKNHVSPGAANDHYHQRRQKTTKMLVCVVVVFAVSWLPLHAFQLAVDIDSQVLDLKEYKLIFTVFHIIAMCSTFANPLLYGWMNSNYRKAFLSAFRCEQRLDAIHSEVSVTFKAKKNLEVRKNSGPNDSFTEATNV

[6] = Ratio of permeability from basal to apical side to apical to basal side of human KB-3-1 cells by scintillation counting; assay type: ADME, cell-based

logD [1] | pIC50 [2] | pIC50 [3] | pIC50 [4] | pIC50 [5] | efflux ratio [6] | Compound
3.5 | 9.34 |  |  |  |  | Cc1cccc(CNc2cc(N3CCOCC3)cc(CSc3nc4c(o3)CCCC4)n2)n1
3.6 | 9.80 |  |  |  |  | Cc1cccc(CNc2cc(N3CCSCC3)cc(CSc3nc(C)c(C)o3)n2)n1
3.9 | 7.72 |  |  |  |  | Cc1nc(SCc2cc(N3CCOCC3)cc(NCc3cccc(OCCF)n3)n2)oc1C
2.6 | 8.00 |  |  |  |  | Cc1nc(SCc2cc(N3CCOCC3)cc(NCc3cccc(COCCF)n3)n2)oc1C
3.1 | 8.28 |  |  |  |  | Cc1nc(SCc2cc(N3CCOCC3)cc(NCc3ccnc(F)c3)n2)oc1C
 |  | < 5.00 | < 5.00 | < 5.00 |  | CCc1sc(SCc2cc(N3CCOCC3)cc(NCc3cccc(C)n3)n2)nc1CF
3.5 |  |  |  |  |  | Cc1nc(SCc2cc(N3CCSCC3)cc(NCc3cccc(F)n3)n2)oc1C
3 | 8.11 |  |  |  |  | Cc1nc(SCc2cc(N3CCOCC3)cc(NCc3cccnc3F)n2)oc1C
2.2 | 8.77 |  |  |  |  | Cc1cccc(CNc2cc(N3CCS(=O)(=O)CC3)cc(CSc3nc(C)c(C)o3)n2)n1
2.3 | 9.25 |  |  |  |  | Cc1cccc(CNc2cc(N3CCOCC3)cc(CSc3nc(C)c(CF)s3)n2)n1
3 | 8.74 |  |  |  |  | Cc1nc(SCc2cc(N3CCOCC3)cc(NCc3cccc(CF)n3)n2)oc1C
2.7 |  | < 5.00 | < 5.00 | < 5.00 | 1.8 | Cc1cccc(CNc2cc(N3CCOCC3)cc(CSc3nc(CF)c(C)s3)n2)n1
3.1 | 8.82 |  |  |  |  | Cc1nc(SCc2cc(N3CCOCC3)cc(NCc3cccc(F)n3)n2)oc1C
3.1 | 9.41 |  |  |  |  | CCc1oc(SCc2cc(N3CCOCC3)cc(NCc3cccc(C)n3)n2)nc1C
2.3 | 8.10 |  |  |  |  | Cc1nc(SCc2cc(N3CCS(=O)(=O)CC3)cc(NCc3cccc(F)n3)n2)oc1C
2.8 | 8.37 |  |  |  |  | COCc1cccc(CNc2cc(N3CCOCC3)cc(CSc3nc(C)c(C)o3)n2)n1
2.8 | 9.16 |  |  |  |  | Cc1cccc(CNc2cc(N3CCOCC3)cc(CSc3nc(C)c(C)o3)n2)n1
2.9 | 9.57 |  |  |  |  | Cc1cccc(CNc2cc(N3CCOCC3)cc(CSc3nc(C)c(C)s3)n2)n1

Compound | logD [1] | pIC50 [2] | pIC50 [3] | pIC50 [4] | pIC50 [5] | efflux ratio [6]
Cc1nc(SCc2cc(N3CCOCC3)cc(NCc3ccc(F)nc3)n2)oc1C | 3 | 7.68 |  |  |  | 
